Results published in patent US7238701B2, “Substituted tetrahydrobenzothienopyrimidinamine compounds useful for treating hyper-proliferative disorders” (Bayer Pharmaceuticals Corporation, priority 2003, dated 2007).

How the values were obtained:
[1] = tested on: A431cells (human epidermoid carcinoma); assay: In vitro tumor cell proliferation assay (Cell Titer-Glo luminescent cell viability), A431 cells; assay type: cell-based; settings: A-431, 72 h, 72 hours drug exposure, 10% Fetal Bovine Serum, ATP luminescence readout, read-out: IC50 (50% inhibition of cell proliferation)
Excerpt: (§1) In vitro Tumor Cell Proliferation Assay
(§2) The tumor cell proliferation assay used to test the compounds of the present invention involves a readout called Cell Titer-Glow® Luminescent Cell Viability Assay developed by Promega (Cunningham, B A “A Growing Issue: Cell Proliferation Assays, Modern kits ease quantification of cell growth” The Scientist 2001, 15(13), 26, and Crouch, S P et al., “The use of ATP bioluminescence as a measure of cell proliferation and cytotoxicity” Journal of Immunological Methods 1993, 160, 81–88), that measures inhibition of cell proliferation. Generation of a luminescent signal corresponds to the amount of ATP present, which is directly proportional to the number of metabolically active (proliferating) cells.
(§3) A431cells (human epidermoid carcinoma, ATCC # HTB-20) and BT474 (human breast carcinoma, ATCC # CRL-1555) were plated at a density of 2.5×10^3 cells/well in 96 well black-clear bottom tissue culture plates in RPMI media with 10% Fetal Bovine Serum and incubated at 37° C. Twenty-four hours later, test compounds are added at a final concentration range from as high 100 μM to as low 64 pM depend on the activities of the tested compounds in serial dilutions at a final DMSO concentration of 0.1%. Cells were incubated for 72 hours at 37° C. in complete growth media after addition of the test compound. After 72 hours of drug exposure, the plates were equilibrated to room temperature for approximately 30 min. Then, using a Promega Cell Titer Glo Luminescent® assay kit, lysis buffer containing 100 microliters of the enzyme luciferase and its substrate, luciferin mixture, was added to each well. The plates were mixed for 2 min on orbital shaker to ensure cell lysis and incubated for 10 min at room temperature to stabilize luminescence signal. The samples were read on VICTOR 2 using Luminescence protocol, and analyzed with Analyze5 software to generate IC50 values.

[2] = tested on: BT474 (human breast carcinoma); assay: In vitro tumor cell proliferation assay (Cell Titer-Glo luminescent cell viability), BT474 cells; assay type: cell-based; settings: BT-474, 72 hours drug exposure, 10% Fetal Bovine Serum, ATP luminescence readout, read-out: IC50 (50% inhibition of cell proliferation)
Excerpt: as §1, §2, §3

| IC50 [1] | IC50 [2] | Compound |
| --- | --- | --- |
| < 50 µM | < 5 µM | Cc1ccc(Oc2ccc(Nc3ncnc4sc5c(c34)CCC(CCNCCO)C5)cc2C)cn1 (stereo not shown) [Example 217, 2-({2-[4-({3-methyl-4-[(6-methylpyridin-3-yl)oxy]phenyl}amino)-5,6,7,8-tetrahydro[1]benzothieno[2,3-d]pyrimidin-7-yl]ethyl}amino)ethanol] |
| < 5 µM | < 5 µM | COCCNCCC1CCc2c(sc3ncnc(Nc4ccc5c(cnn5Cc5ccccc5)c4)c23)C1 (stereo not shown) [Example 205, N-(1-benzyl-1H-indazol-5-yl)-7-{2-[(2-methoxyethyl)amino]ethyl}-5,6,7,8-tetrahydro[1]benzothieno[2,3-d]pyrimidin-4-amine] |
| < 5 µM | < 5 µM | CS(=O)(=O)OCCC1CCc2c(sc3ncnc(Nc4ccc5c(cnn5Cc5ccccc5)c4)c23)C1 (stereo not shown) [Example 202, 2-{4-[(1-benzyl-1H-indazol-5-yl)amino]-5,6,7,8-tetrahydro[1]benzothieno[2,3-d]pyrimidin-7-yl}ethyl methanesulfonate] |
| < 50 µM | < 5 µM | Cc1ccc(Oc2ccc(Nc3ncnc4sc5c(c34)CCC(CCN3CCC(O)C3)C5)cc2C)cn1 (stereo not shown) [Example 233, 1-{2-[4-({3-methyl-4-[(6-methylpyridin-3-yl)oxy]phenyl}amino)-5,6,7,8-tetrahydro[1]benzothieno[2,3-d]pyrimidin-7-yl]ethyl}pyrrolidin-3-ol] |
| < 50 µM | < 5 µM | CNCCC1CCc2c(sc3ncnc(Nc4ccc(Oc5ccc(C)nc5)c(C)c4)c23)C1 (stereo not shown) [Example 232, 7-[2-(methylamino)ethyl]-N-{3-methyl-4-[(6-methylpyridin-3-yl)oxy]phenyl}-5,6,7,8-tetrahydro[1]benzothieno[2,3-d]pyrimidin-4-amine] |
| < 5 µM | < 5 µM | COCCNCCC1CCc2c(sc3ncnc(Nc4ccc(F)c(Cl)c4)c23)C1 (stereo not shown) [Example 75, N-(3-chloro-4-fluorophenyl)-7-{2-[(2-methoxyethyl)amino]ethyl}-5,6,7,8-tetrahydro[1]benzothieno[2,3-d]pyrimidin-4-amine] |
| < 50 µM | < 5 µM | Cc1ccc(Oc2ccc(Nc3ncnc4sc5c(c34)CCC(CCNCCS(C)(=O)=O)C5)cc2C)cn1 (stereo not shown) [Example 219, N-{3-methyl-4-[(6-methylpyridin-3-yl)oxy]phenyl}-7-(2-{[2-(methylsulfonyl)ethyl]amino}ethyl)-5,6,7,8-tetrahydro[1]benzothieno[2,3-d]pyrimidin-4-amine] |
|  | < 5 µM | OCCC1CCc2c(sc3ncnc(Nc4ccc(OCc5ccc(F)cc5)c(Cl)c4)c23)C1 (stereo not shown) [Example 155, 2-[4-({3-chloro-4-[(4-fluorobenzyl)oxy]phenyl}amino)-5,6,7,8-tetrahydro[1]benzothieno[2,3-d]pyrimidin-7-yl]ethanol] |
|  | < 5 µM | CS(=O)(=O)OCCC1CCc2c(sc3ncnc(Nc4ccc(OCc5ccc(F)cc5)c(Cl)c4)c23)C1 (stereo not shown) [Example 156, 2-[4-({3-chloro-4-[(4-fluorobenzyl)oxy]phenyl}amino)-5,6,7,8-tetrahydro[1]benzothieno[2,3-d]pyrimidin-7-yl]ethyl methanesulfonate] |

More lines, now with the values behind:

| Compound | IC50 [1] | IC50 [2] |
| --- | --- | --- |
| Cc1ccc(Nc2ncnc3sc4c(c23)CCC(C(=O)O)C4)cc1O (stereo not shown) [Example 46, 4-[(3-hydroxy-4-methylphenyl)amino]-5,6,7,8tetrahydro[1]benzothieno[2,3-d]pyrimidine-7-carboxylic acid] | < 50 µM |  |
| CCN(CC)CCC1CCc2c(sc3ncnc(Nc4ccc(OCc5ccccn5)c(Cl)c4)c23)C1 (stereo not shown) [Example 194, N-[3-chloro-4-(pyridin-2-ylmethoxy)phenyl]-7-[2-(diethylamino)ethyl]-5,6,7,8-tetrahydro[1]benzothieno[2,3-d]pyrimidin-4-amine] | < 5 µM | < 5 µM |
| CCOC(=O)CC1CCc2c(sc3ncnc(Nc4ccc(OCc5ccccn5)c(Cl)c4)c23)C1 (stereo not shown) [Example 173, {4-[3-Chloro-4-(pyridin-2-ylmethoxy)-phenylamino]-5,6,7,8-tetrahydro-benzo[4,5]thieno[2,3-d]pyrimidin-7-yl}-acetic acid ethyl ester] | < 50 µM | < 5 µM |
| Clc1cc(Nc2ncnc3sc4c(c23)CCC(CCNCCN2CCOCC2)C4)ccc1OCc1ccccn1 (stereo not shown) [Example 192, N-[3-chloro-4-(pyridin-2-ylmethoxy)phenyl]-7-{2-[(2-morpholin-4-ylethyl)amino]ethyl}-5,6,7,8-tetrahydro[1]benzothieno[2,3-d]pyrimidin-4-amine] | < 5 µM | < 5 µM |
| CN1CCN(C(=O)CC2CCc3c(sc4ncnc(Nc5ccc(F)c(Cl)c5)c34)C2)CC1 (stereo not shown) [Example 58, N-(3-chloro-4-fluorophenyl)-7-[2-(4-methyl-1-piperazinyl)-2-oxoethyl]-5,6,7,8-tetrahydro[1]benzothieno[2,3-d]pyrimidin-4-amine] | < 5 µM | < 5 µM |
| COCCNC(=O)CC1CCc2c(sc3ncnc(Nc4ccc(OCc5ccc(F)cc5)c(Cl)c4)c23)C1 (stereo not shown) [Example 146, 2-[4-({3-chloro-4-[(4-fluorobenzyl)oxy]phenyl}amino)-5,6,7,8-tetrahydro[1]benzothieno[2,3-d]pyrimidin-7-yl]-N-(2-methoxyethyl)acetamide] | < 50 µM | < 50 µM |
| Brc1cccc(Nc2ncnc3sc4c(c23)CCC(CCn2ccnc2)C4)c1 (stereo not shown) [Example 88, N-(3-bromophenyl)-7-[2-(1H-emidazol-1-yl)ethyl]-5,6,7,8-tetrahydro[1]benzothieno[2,3-d]pyrimidin-4-amine] | < 5 µM | < 5 µM |
| Fc1cccc(COc2ccc(Nc3ncnc4sc5c(c34)CCC(CCN3CCOCC3)C5)cc2Cl)c1 (stereo not shown) [Example 139, N-{3-chloro-4-[(3-fluorobenzyl)oxy]phenyl}-7-(2-morpholin-4-ylethyl)-5,6,7,8-tetrahydro[1]benzothieno[2,3-d]pyrimidin-4-amine] | < 5 µM | < 5 µM |
| CCOC(=O)CC1CCc2c(sc3ncnc(Nc4ccc(OCc5ccc(F)cc5)c(Cl)c4)c23)C1 (stereo not shown) [Example 143, ethyl [4-({3-chloro-4-[(4-fluorobenzyl)oxy]phenyl}amino)-5,6,7,8-tetrahydro[1]benzothieno[2,3-d]pyrimidin-7-yl]acetate] | < 50 µM | < 5 µM |
| COCCNC(=O)CC1CCc2c(sc3ncnc(Nc4cccc(Br)c4)c23)C1 (stereo not shown) [Example 82, 2-{4-[(3-bromophenyl)amino]-5,6,7,8-tetrahydro[1]benzothieno[2,3-d]pyrimidin-7-yl}-N-(2-methoxyethyl)acetamide] | < 5 µM | < 5 µM |
| COCCNC(=O)CC1CCc2c(sc3ncnc(Nc4ccc(F)c(Cl)c4)c23)C1 (stereo not shown) [Example 62, 2-{4-[(3-chloro-4-fluorophenyl)amino]-5,6,7,8-tetrahydro[1]benzothieno[2,3-d]pyrimidin-7-yl}-N-(2-methoxyethyl)acetamide] | < 5 µM | < 5 µM |
| COCCN1CCN(CCC2CCc3c(sc4ncnc(Nc5ccc(OCc6ccccn6)c(Cl)c5)c34)C2)CC1 (stereo not shown) [Example 188, N-[3-chloro-4-(pyridin-2-ylmethoxy)phenyl]-7-{2-[4-(2-methoxyethyl)piperazin-1-yl]ethyl}-5,6,7,8-tetrahydro[1]benzothieno[2,3-d]pyrimidin-4-amine] | < 50 µM | < 5 µM |
| CN1CCN(CCC2CCc3c(sc4ncnc(Nc5ccc(OCc6ccccn6)c(Cl)c5)c34)C2)CC1 (stereo not shown) [Example 183, N-[3-chloro-4-(pyridin-2-ylmethoxy)phenyl]-7-[2-(4-methylpiperazin-1-yl)ethyl]-5,6,7,8-tetrahydro[1]benzothieno[2,3-d]pyrimidin-4-amine] | < 5 µM | < 5 µM |
| CN1CCN(CC2CCc3c(sc4ncnc(Nc5ccc(F)c(Cl)c5)c34)C2)CC1 (stereo not shown) [Example 15, N-(3-chloro-4-fluorophenyl)-7-[(4-methyl-1-piperazinyl)methyl]-5,6,7,8-tetrahydro[1]benzothieno[2,3-d]pyrimidin-4-amine] | < 5 µM | < 5 µM |
| COCCN(C)CC1CCc2c(sc3ncnc(Nc4cccc(Br)c4)c23)C1 (stereo not shown) [Example 36, N-(3-bromophenyl)-7-{[(2-methoxyethyl)(methyl)amino]methyl}-5,6,7,8-tetrahydro[1]benzothieno[2,3-d]pyrimidin-4-amine] |  | < 5 µM |
| CN1CCN(C(=O)C2CCc3c(sc4ncnc(Nc5ccc(OCc6ccccc6)cc5)c34)C2)CC1 (stereo not shown) [Example 43, N-[4-(benzyloxy)phenyl]-7-[(4-methyl-1-piperazinyl)carbonyl]-5,6,7,8-tetrahydro[1]benzothieno[2,3-d]pyrimidin-4-amine] |  | < 5 µM |
| CN1CCN(CC2CCc3c(sc4ncnc(Nc5cccc(Br)c5)c34)C2)CC1 (stereo not shown) [Example 26, N-(3-bromophenyl)-7-[(4-methyl-1-piperazinyl)methyl]-5,6,7,8-tetrahydro[1]benzothieno[2,3-d]pyrimidin-4-amine] | < 5 µM |  |
